Data as given in patent US12643879B2, “Functionalized heterocyclic compounds as modulators of stimulator of interferon genes (STING)” (RYVU THERAPEUTICS S.A., priority 2019, dated 2026).

Tests used:
[1] = system: CT26 murine colon carcinoma allografts; test: In vivo anti-tumor efficacy in CT26 allografts; design: species or system female Balb/C mice; conditions: intravenously, once every fifth day on three occasions
Method: The efficacy of Example 4, Example 31 and Example 57 was evaluated in established CT26 murine colon carcinoma allografts in female Balb/C mice. Compounds were formulated in 5% ethanol with 10% Captisol in PBS and administered intravenously, once every fifth day on three occasions. The solution was prepared fresh prior to each administration. […] By the end of the study there was one complete response among animals treated at 10 mg/kg of Example 4. […] By the end of the study, on day 43, there was one complete response recorded in group treated at 20 mg/kg of Example 57.

human STING = human STING (Homo sapiens, UniProt Q86WV6); test: Fluorescence Thermal Shift assay (binding to STING); conditions: STING 0.1 mg/mL, SyproOrange, 25 to 99° C.
Outline: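 Human STING (0.1 mg/mL final) preincubated 20 min with compounds in 50 mM Hepes, 150 mM NaCl, pH 7.5, then SyproOrange added. Thermal unfolding 25–99 °C at 0.033 °C/s continuous ramp monitored by fluorescence.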

[2] = system: NF-κB pathway in THP-1 dual cells; test: THP-1 Dual reporter assay, NF-κB pathway (SEAP); assay type: cell-based; conditions: Homo sapiens, THP1-Dual; 18 h stimulation, absorbance at 630 or 655 nm; read-out: THP1 Dual EC50 (μM) NFkB
Outline: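 After 18 h stimulation with STING agonist, culture medium was sampled. IRF activity was read as luminescence of ISG54/ISRE-driven luciferase right after adding reagent; NF-κB activity as absorbance at 630 or 655 nm of SEAP (IFN-β minimal promoter with NF-κB elements) after 1 or 2 h at 37° C.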

[3] = system: interferon regulatory factor (IRF) pathway in THP-1 dual cells; test: THP-1 Dual reporter assay, IRF pathway (luciferase); assay type: cell-based; conditions: Homo sapiens, THP1-Dual; 18 h stimulation, luminescence; read-out: THP1 Dual EC50 (μM) IRF
Outline: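 Luminescence (IRF arm, luciferase under ISG54 minimal promoter with five ISREs) and absorbance at 630 or 655 nm (NF-κB arm, SEAP under IFN-β minimal promoter with NF-κB elements) were measured in supernatants of THP-1 dual cells stimulated 18 h with compound.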

Sequence of human STING (Q86WV6 whole entry H232R): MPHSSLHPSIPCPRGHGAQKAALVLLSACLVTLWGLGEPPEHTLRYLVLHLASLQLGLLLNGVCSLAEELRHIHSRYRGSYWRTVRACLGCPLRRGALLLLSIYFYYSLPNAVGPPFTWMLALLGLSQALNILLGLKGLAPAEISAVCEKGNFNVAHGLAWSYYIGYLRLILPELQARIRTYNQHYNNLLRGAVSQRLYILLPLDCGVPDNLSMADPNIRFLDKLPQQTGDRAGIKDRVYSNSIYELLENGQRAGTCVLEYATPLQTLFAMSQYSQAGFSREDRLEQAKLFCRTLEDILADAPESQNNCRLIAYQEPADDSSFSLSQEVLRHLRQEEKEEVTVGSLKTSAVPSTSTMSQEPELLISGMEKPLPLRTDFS

hSTING FTS binding assay (ΔT C. °) (human STING)	EC50 [2]	EC50 [3]	Structure (SMILES)	anti-tumor efficacy (tumor growth vs control group) ([1]; 5 mg/kg)	anti-tumor efficacy (tumor growth vs control group) ([1]; 10 mg/kg)	anti-tumor efficacy (tumor growth vs control group) ([1]; 20 mg/kg)	complete responses by the end of the study ([1]; 20 mg/kg, day 43)	response of CT26 tumors to treatment [1]	anti-tumor efficacy (tumor growth vs control group) ([1]; 7 mg/kg)	complete responses by the end of the study ([1]; 10 mg/kg)	anti-tumor efficacy (tumor growth vs control group) ([1]; 15 mg/kg)	anti-tumor efficacy (tumor growth vs control group) ([1]; 30 mg/kg)	complete responses by the end of the study ([1]; 30 mg/kg, day 43)
+++ (+++=ΔTm ≥20° C.)	–	–	Cc1ccc(N2CCC[C@H](N(Cc3ccnc(C)c3)Cc3cn(C4CC4)c4cc(N5CC[C@H](N)C(F)(F)C5)c(F)cc4c3=O)C2)cn1.Cl (single isomer, unassigned) [Example 57]	minimal tumor growth delay	moderately efficacious	full efficacious	one	responded prominently	–	–	–	–	–
+++ (+++=ΔTm ≥20° C.)	< 1 µM	< 1 µM	COc1cc(CN(Cc2cn(C3CC3)c3cc(F)c(F)cc3c2=O)[C@H]2CCCN(c3ccc(N)nc3)C2)ccn1.Cl [Example 4, 3-({[(3S)-1-(6-Aminopyridin-3-yl)piperidin-3-yl][(2-methoxypyridin-4-yl)methyl]amino}methyl)-1-cyclopropyl-6,7-difluoro-1,4-dihydroquinolin-4-one hydrochloride]	–	efficacious	–	–	responded prominently	efficacious	one	–	–	–
+++ (+++=ΔTm ≥20° C.)	< 1 µM	< 1 µM	Cc1ccc(N2CCC[C@H](N(Cc3ccnc(C)c3)Cc3cn(C4CC4)c4cc(N5CCC[C@H](O)C5)c(F)cc4c3=O)C2)cn1.Cl [Example 31, 1-cyclopropyl-6-fluoro-7-[(3S)-3-hydroxypiperidin-1-yl]-3-({[(3S)-1-(6-methylpyridin-3-yl)piperidin-3-yl][(2-methylpyridin-4-yl)methyl]amino}methyl)-1,4-dihydroquinolin-4-one hydrochloride]	–	–	–	–	responded prominently	slight tumor growth delay	–	prominently efficacious	prominently efficacious	two
